# Laboratory results taken from the supplement of paper PMC10307832.
# Columns and labels:
# Assay in all cases: relative viability (nuclei count vs DMSO), 5 days (fraction); higher = more cells survive
# HCC-15 = system: HCC-15
# Procedure, shortened: (§1)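 Lung cancer cell lines in 1536-well plates were dosed by pin tool the day after seeding, either with one drug alone or with a fixed anchor-drug dose plus five library-drug doses (not always all listed) in √10 steps. After 5 days, cells were fixed and their nuclei stained in one step (final 0.05% Triton X-100, 1% formaldehyde, 1 ug/ml Hoechst), then counted on 4× images. Relative viability is the nuclei count in treated wells divided by that in vehicle wells. Values are medians of duplicate plates.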
# NCI-H1563 = system: NCI-H1563
# Procedure, shortened: as §1
# COR-L23 = system: COR-L23
# Procedure, shortened: as §1
# PC-3 [JPC-3] = system: PC-3 [JPC-3]
# Procedure, shortened: as §1
# NCI-H2228 = system: NCI-H2228
# Procedure, shortened: as §1
# RERF-LC-KJ = system: RERF-LC-KJ
# Procedure, shortened: as §1
# EKVX = system: EKVX
# Procedure, shortened: as §1
# NCI-H1734 = system: NCI-H1734
# Procedure, shortened: as §1
# LK-2 = system: LK-2
# Procedure, shortened: as §1
# HCC-827 = system: HCC-827
# Procedure, shortened: as §1
# PC-14 = system: PC-14
# Procedure, shortened: as §1
# CAL-12T = system: CAL-12T
# Procedure, shortened: as §1
# SW 1573 = system: SW 1573
# Procedure, shortened: as §1
# NCI-H1355 = system: NCI-H1355
# Procedure, shortened: as §1
# NCI-H661 = system: NCI-H661
# Procedure, shortened: as §1
# ABC-1 = system: ABC-1
# Procedure, shortened: as §1
# NCI-H520 = system: NCI-H520
# Procedure, shortened: as §1
# H3255 = system: H3255
# Procedure, shortened: as §1
# SK-MES-1 = system: SK-MES-1
# Procedure, shortened: as §1
# NCI-H2405 = system: NCI-H2405
# Procedure, shortened: as §1
# NCI-H1437 = system: NCI-H1437
# Procedure, shortened: as §1
# NCI-H322M = system: NCI-H322M
# Procedure, shortened: as §1
# NCI-H1650 = system: NCI-H1650
# Procedure, shortened: as §1
# NCI-H1651 = system: NCI-H1651
# Procedure, shortened: as §1
structure (smiles),measurement,setting,value
Clc1ccc(Nc2nnc(Cc3ccncc3)c3ccccc23)cc1 [Vatalanib] + CS(=O)(=O)CCNCc1ccc(-c2ccc3ncnc(Nc4ccc(OCc5cccc(F)c5)c(Cl)c4)c3c2)o1 [Lapatinib] (partner 2 µM),relative viability,HCC-15; first compound 0.04 µM,0.874
same,relative viability,HCC-15; first compound 0.1265 µM,0.699
same,relative viability,HCC-15; first compound 0.4 µM,0.853
same,relative viability,HCC-15; first compound 1.265 µM,0.825
same,relative viability,HCC-15; first compound 4 µM,0.837
same,relative viability,NCI-H1563; first compound 0.04 µM,0.994
same,relative viability,NCI-H1563; first compound 0.1265 µM,0.91
same,relative viability,NCI-H1563; first compound 0.4 µM,1.12
same,relative viability,NCI-H1563; first compound 1.265 µM,0.945
same,relative viability,NCI-H1563; first compound 4 µM,0.777
same,relative viability,COR-L23; first compound 0.04 µM,0.848
same,relative viability,COR-L23; first compound 0.1265 µM,0.753
same,relative viability,COR-L23; first compound 0.4 µM,1.01
same,relative viability,COR-L23; first compound 1.265 µM,1.07
same,relative viability,COR-L23; first compound 4 µM,0.868
same,relative viability,PC-3 [JPC-3]; first compound 0.04 µM,0.49
same,relative viability,PC-3 [JPC-3]; first compound 0.1265 µM,0.461
same,relative viability,PC-3 [JPC-3]; first compound 0.4 µM,0.448
same,relative viability,PC-3 [JPC-3]; first compound 1.265 µM,0.43
same,relative viability,PC-3 [JPC-3]; first compound 4 µM,0.442
same,relative viability,NCI-H2228; first compound 0.04 µM,1.32
same,relative viability,NCI-H2228; first compound 0.1265 µM,1.14
same,relative viability,NCI-H2228; first compound 0.4 µM,1.06
same,relative viability,NCI-H2228; first compound 1.265 µM,0.981
same,relative viability,NCI-H2228; first compound 4 µM,1.28
same,relative viability,RERF-LC-KJ; first compound 0.04 µM,0.812
same,relative viability,RERF-LC-KJ; first compound 0.1265 µM,0.842
same,relative viability,RERF-LC-KJ; first compound 0.4 µM,0.854
same,relative viability,RERF-LC-KJ; first compound 1.265 µM,0.775
same,relative viability,RERF-LC-KJ; first compound 4 µM,0.698
same,relative viability,EKVX; first compound 0.04 µM,0.195
same,relative viability,EKVX; first compound 0.1265 µM,0.238
same,relative viability,EKVX; first compound 0.4 µM,0.547
same,relative viability,EKVX; first compound 1.265 µM,0.186
same,relative viability,EKVX; first compound 4 µM,0.216
same,relative viability,NCI-H1734; first compound 0.04 µM,0.919
same,relative viability,NCI-H1734; first compound 0.1265 µM,1.02
same,relative viability,NCI-H1734; first compound 0.4 µM,1.11
same,relative viability,NCI-H1734; first compound 1.265 µM,1.06
same,relative viability,NCI-H1734; first compound 4 µM,1.09
same,relative viability,LK-2; first compound 0.04 µM,0.88
same,relative viability,LK-2; first compound 0.1265 µM,0.831
same,relative viability,LK-2; first compound 0.4 µM,0.698
same,relative viability,LK-2; first compound 1.265 µM,1.03
same,relative viability,LK-2; first compound 4 µM,0.93
same,relative viability,HCC-827; first compound 0.04 µM,0.19
same,relative viability,HCC-827; first compound 0.1265 µM,0.174
same,relative viability,HCC-827; first compound 0.4 µM,0.182
same,relative viability,HCC-827; first compound 1.265 µM,0.165
same,relative viability,HCC-827; first compound 4 µM,0.188
same,relative viability,PC-14; first compound 0.04 µM,0.377
same,relative viability,PC-14; first compound 0.1265 µM,0.306
same,relative viability,PC-14; first compound 0.4 µM,0.334
same,relative viability,PC-14; first compound 1.265 µM,0.315
same,relative viability,PC-14; first compound 4 µM,0.288
same,relative viability,CAL-12T; first compound 0.04 µM,0.63
same,relative viability,CAL-12T; first compound 0.1265 µM,0.668
same,relative viability,CAL-12T; first compound 1.265 µM,0.678
same,relative viability,CAL-12T; first compound 4 µM,0.633
same,relative viability,SW 1573; first compound 0.04 µM,1.29
same,relative viability,SW 1573; first compound 0.1265 µM,0.942
same,relative viability,SW 1573; first compound 0.4 µM,1.23
same,relative viability,SW 1573; first compound 1.265 µM,1.04
same,relative viability,SW 1573; first compound 4 µM,1.05
same,relative viability,NCI-H1355; first compound 0.04 µM,1.02
same,relative viability,NCI-H1355; first compound 0.1265 µM,0.934
same,relative viability,NCI-H1355; first compound 0.4 µM,1.14
same,relative viability,NCI-H1355; first compound 1.265 µM,0.86
same,relative viability,NCI-H1355; first compound 4 µM,0.887
same,relative viability,NCI-H661; first compound 0.04 µM,0.505
same,relative viability,NCI-H661; first compound 0.1265 µM,0.384
same,relative viability,NCI-H661; first compound 0.4 µM,0.518
same,relative viability,NCI-H661; first compound 1.265 µM,0.524
same,relative viability,NCI-H661; first compound 4 µM,0.496
same,relative viability,ABC-1; first compound 0.04 µM,1.33
same,relative viability,ABC-1; first compound 0.1265 µM,0.931
same,relative viability,ABC-1; first compound 0.4 µM,1.16
same,relative viability,ABC-1; first compound 1.265 µM,1.23
same,relative viability,ABC-1; first compound 4 µM,1.05
same,relative viability,NCI-H520; first compound 0.04 µM,0.94
same,relative viability,NCI-H520; first compound 0.1265 µM,0.711
same,relative viability,NCI-H520; first compound 0.4 µM,0.891
same,relative viability,NCI-H520; first compound 1.265 µM,0.741
same,relative viability,NCI-H520; first compound 4 µM,0.82
same,relative viability,H3255; first compound 0.04 µM,0.261
same,relative viability,H3255; first compound 0.1265 µM,0.226
same,relative viability,H3255; first compound 0.4 µM,0.287
same,relative viability,H3255; first compound 1.265 µM,0.247
same,relative viability,H3255; first compound 4 µM,0.263
same,relative viability,SK-MES-1; first compound 0.04 µM,0.516
same,relative viability,SK-MES-1; first compound 0.1265 µM,0.457
same,relative viability,SK-MES-1; first compound 0.4 µM,0.464
same,relative viability,SK-MES-1; first compound 1.265 µM,0.462
same,relative viability,SK-MES-1; first compound 4 µM,0.429
same,relative viability,NCI-H2405; first compound 0.04 µM,1.04
same,relative viability,NCI-H2405; first compound 0.1265 µM,0.984
same,relative viability,NCI-H2405; first compound 1.265 µM,0.923
same,relative viability,NCI-H2405; first compound 4 µM,1.05
same,relative viability,NCI-H1437; first compound 0.04 µM,0.856
same,relative viability,NCI-H1437; first compound 0.1265 µM,0.779
same,relative viability,NCI-H1437; first compound 0.4 µM,0.934
same,relative viability,NCI-H1437; first compound 1.265 µM,0.734
same,relative viability,NCI-H1437; first compound 4 µM,0.848
same,relative viability,NCI-H322M; first compound 0.04 µM,0.493
same,relative viability,NCI-H322M; first compound 0.1265 µM,0.637
same,relative viability,NCI-H322M; first compound 0.4 µM,0.509
same,relative viability,NCI-H322M; first compound 1.265 µM,0.561
same,relative viability,NCI-H322M; first compound 4 µM,0.535
same,relative viability,NCI-H1650; first compound 0.04 µM,0.799
same,relative viability,NCI-H1650; first compound 0.1265 µM,0.644
same,relative viability,NCI-H1650; first compound 0.4 µM,0.959
same,relative viability,NCI-H1650; first compound 1.265 µM,0.752
same,relative viability,NCI-H1650; first compound 4 µM,0.63
same,relative viability,NCI-H1651; first compound 0.04 µM,0.921
same,relative viability,NCI-H1651; first compound 0.1265 µM,0.868
same,relative viability,NCI-H1651; first compound 0.4 µM,0.947
same,relative viability,NCI-H1651; first compound 1.265 µM,0.899
same,relative viability,NCI-H1651; first compound 4 µM,0.835
